6 compounds from patent publication US5120764A, “Inhibitors of lysyl oxidase” (Merrell Dow Pharmaceuticals Inc., priority 1988, dated 1992) can be followed below.

SMILES strings stand for the structures. pIC50: −log10 of the molar value. Structures can show the parent of a compound that is named as a salt.

This experiment has as its target T1, lysyl oxidase (Bos taurus, UniProt P33072).
T1 sequence (P33072 170-418): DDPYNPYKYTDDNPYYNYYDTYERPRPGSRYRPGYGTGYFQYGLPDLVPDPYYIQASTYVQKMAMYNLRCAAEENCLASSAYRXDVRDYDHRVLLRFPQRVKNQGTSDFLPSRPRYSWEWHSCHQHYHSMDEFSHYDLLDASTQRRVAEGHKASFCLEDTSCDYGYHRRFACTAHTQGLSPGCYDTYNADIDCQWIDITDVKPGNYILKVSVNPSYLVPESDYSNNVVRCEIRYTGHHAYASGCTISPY
Put plainly: Lysyl oxidase inhibition (fluorometric assay, cadaverine substrate, horseradish peroxidase/homovanillic acid). Format: biochemical. As to conditions: lysyl oxidase preparation from bovine aorta, 55° C., 10 minutes, pH 8.2 borate buffer, read-out: IC50 (concentration of test compound required to inhibit the enzyme activity by 50 percent). How it is done: Lysyl oxidase preparation is obtained from bovine aorta by the procedures modified from M. A. Williams and H. M. Kagan, Anal. Biochem. 149, 430-437 (1985) and H. M. Kagan and K. A. Sullivan, Methods in Enzyml. 82, 637-650 (1982). The aorta is obtained fresh on the day of the enzyme preparation and is maintained at 4° C. for the duration of its use in the experiments. The aorta is ground fine and is homogenized for 90 seconds in buffer (2.5 ml of a buffer consisting of 16 mM potassium phosphate and 1 mM phenylmethylsulfonyl fluoride/g of tissue) with 0.15M NaCl added, then the mixture is centrifuged (20 minutes at 11,000×g). The homogenization followed by centrifugation procedure is repeated with buffer plus 0.15 M NaCl, buffer alone, and buffer plus 1M urea. After homogenization in 1M urea, the mixture is stirred for 1 hour prior to centrifugation. The resulting pellet is homogenized in buffer plus 4M urea, stirred for 18 hours, and centrifuged. The supernatant with lysyl oxidase activity is saved. The tissue is homogenized in buffer plus 4M urea, stirred overnight, and centrifuged twice more. The supernatants with lysyl oxidase activity are saved.
The assay is adopted from that of P. C. Trackman, et al., Anal. Biochem. 113, 336-342 (1981). Each assay consists of two tubes, one that contains 0.2 mM β-aminopropionitrile, BAPN, from the start and one to which BAPN is added to quench the reaction. Lysyl oxidase preparation (0.150 ml), urea (0.300 ml, 4M), buffer (0.930 ml, 200 mM borate at pH =8.2), homovanillic acid (0.020 ml of 50 mM solution), and horseradish peroxidase (0.010 ml of Sigma Type II at 5 mg/ml protein) are incubated for 2 minutes at 55° C. in a test tube. Cadaverine (0.100 ml of 150 mM) and test compound, if any, is added and the incubation continued at 55° C. for an additional 10 minutes. The test tubes containing this mixture are then cooled in a ice bath after adding BAPN to any tubes not containing it. The difference in fluorescence (excitation 315 nm and emission 425 nm) between corresponding tubes that received BAPN at 0 minutes and at 10 minutes is a measure of enzyme activity. A standard curve to determine the amount of cadaverine converted by lysyl oxidase is prepared as follows. Assay mixtures containing BAPN are made up as described and known amounts of hydrogen peroxide are added simultaneously with cadaverine and the fluorescence changes after 10 minutes reaction are determined.
Using this method the lysyl oxidase inhibiting activity expressed as IC50 (inhibitory concentration), that is the concentration of test compound required to inhibit the enzyme activity by 50 percent, was determined for various compounds of this invention.
As to `C=C=C(CN)CCCCCC` [β-Ethenylidene-1-Octanamine Hydrochloride], the pIC50 was 9.00.

Regarding `C=C=C(CN)c1cccs1` [β-Ethenylidene-2-Thiopheneethanamine-4-Methylbenzenesulfonate], the pIC50 is 8.00.

Take `C=C=C(CN)c1ccc(OC)cc1` [β-Ethenylidene-4-Methoxybenzeneethanamine-4-Methylbenzenesulfonate]: the pIC50 is 8.00.

`C=C=C(CN)CCc1ccccc1` [β-Ethenylidenebenzenebutanamine Hydrochloride]: the pIC50 was 9.00.

On to `C=C=C(CN)CCCc1ccccc1` [β-Ethenylidenebenzenepentanamine Hydrochloride], for which the pIC50 was 9.00.

In the case of `C=C=C(CN)c1cc2ccccc2s1` [β-Ethylenylidene-Benzo[β]Thiophene-2-Ethanamine Hydrochloride], the pIC50 was 8.00.
